≈ marks a conversion by molar mass, not a printed value. Read-outs that look alike come from different tables or passages of the source. Non-standard residues stand in square brackets, D forms with d. Residues, ends and D or L forms follow the SMILES beside them. *: point of attachment. Myristoyl = CCCCCCCCCCCCCC(=O)*

Assay [1] has as its system Acinetobacter baumannii ATCC 17978.
Assay [2] has as its system Cryptococcus neoformans 89-610 (fluconazole-resistant).
Assay [3] has as its system Cryptococcus neoformans H99.
Assay [4] concerns Cryptococcus neoformans T1 (fluconazole-resistant).
The test system of assay [5] is Cryptococcus deuterogattii R265.
The subject of assay [6] is Xanthomonas euvesicatoria strain Xvt28. Briefly: MIC and MBC by serial dilution in 96-well plate. The note with it: Xev Xvt28; Table 7. It is filed as cell-based. As to the method: (§1) The effect of peptide length on the antimicrobial activity was investigated by deciding the minimal inhibitory concentration (MIC) and minimal bactericidal concentration (MBC) for each peptide against the pathogen with the media and growth conditions of phytopathogenic bacteria and E. coli as described in Table 1. Single bacterial colony grown on an optimal rich agar medium was picked, and each grew in 3 mL of the same rich liquid medium for 4 to 6 h.
(§2) For experiments carried out in the rich medium, the bacterial broth culture was then diluted in the same medium to give a final concentration of OD600=0.08, and then further diluted 100 folds in the same medium.
(§3) For experiments carried out in the minimal medium, the bacterial cells were collected from the bacterial liquid culture by centrifugation, re-suspended in an optimal minimal medium to give a final concentration of OD600=0.08, and then further diluted 100 folds in the same minimal medium.
(§4) Fifty microliters of serially diluted peptides (2-fold the final concentration) were added in a 96-well polystyrene plate with 50 μL of the bacterial culture. The final concentrations of peptides were 0, 2, 4, 8, 16 and 32 μg/mL. The plates were incubated at an optimal temperature without shaking.
(§5) MBC was determined as the lowest peptide concentration at which no colonies formed.

The test system of assay [7] is Xanthomonas campestris pv. campestris strain Xcc17. Briefly: MIC and MBC by serial dilution in 96-well plate. It is filed as cell-based. The note with it: Xcc Xcc17; Table 7. As to the method:
as §1, §2, §3, §4, §5

The subject of assay [8] is Ralstonia solanacearum strain Pss4. As to conditions: Rs Pss4; optimal minimal medium, crude peptides (Table 9).
The subject of assay [9] is Pseudomonas syringae pv. tomato strain DC3000.
The next assay has as its system Eco DH5α. Briefly: MIC and MBC by serial dilution in 96-well plate. It is filed as cell-based, Escherichia coli. As to the method:
as §1, §2, §3, §4, §5

The next assay has as its system Botrytis cinerea. It is filed as cell-based. The note with it: Bc; optimal minimal medium, crude peptides (Table 9). As to the method:
(§6) The experiments were conducted in an optimal minimal medium for each pathogen. The media and growth conditions were described in Tables 2 and 3. MIC and MBC values were determined following the procedures described above. […] Fifty microliters of serially diluted peptides (2-fold the final concentration) were added in a 96-well polystyrene plate with 50 μL of the fungal spore suspension. […] The plates were incubated at an optimal temperature without shaking. […] MFC was determined as the lowest peptide concentration at which no fungal growth was observed.

Assay [10] relates to Staphylococcus aureus BCRC 10777.
Assay [11] relates to Agrobacterium tumefaciens strain Atu C58C1.
Assay [12] has as its system Klebsiella pneumonia NTUH-K2044.
Assay [13] has as its system Xanthomonas oryzae pv. oryzae strain Xoo28. As to conditions: Xoo Xoo28; Table 7.
The subject of a further assay is Cgl FST02. It is filed as cell-based, Colletotricum gloeosporioides. The note with it: Cgl FST02; optimal minimal medium, crude peptides (Table 9). As to the method:
as §6

In assay [14] the test system is bacteria, fungal spores, and fungal mycelia. It is filed as cell-based. As to conditions: SYTOX Green, crude peptides, room temperature in dark for 2 h.
Assay [15] deals with Pseudomonas syringae pv. syringae strain B728a. The note with it: Pss B728a; Table 7.
The test system of assay [16] is Staphylococcus epidermidis ATCC 14990.
The next assay relates to Erwinia chrysanthemi. It is filed as cell-based. As to the method:
(§7) The effect of peptide length on the antimicrobial activity was investigated by deciding the minimal inhibitory concentration (MIC) and minimal bactericidal concentration (MBC) for each peptide against the pathogen with the media and growth conditions of phytopathogenic bacteria and E. coli as described in Table 1. Single bacterial colony grown on an optimal rich agar medium was picked, and each grew in 3 mL of the same rich liquid medium for 4 to 6 h. For experiments carried out in the rich medium, the bacterial broth culture was then diluted in the same medium to give a final concentration of OD600=0.08, and then further diluted 100 folds in the same medium. For experiments carried out in the minimal medium, the bacterial cells were collected from the bacterial liquid culture by centrifugation, re-suspended in an optimal minimal medium to give a final concentration of OD600=0.08, and then further diluted 100 folds in the same minimal medium. Fifty microliters of serially diluted peptides (2-fold the final concentration) were added in a 96-well polystyrene plate with 50 μL of the bacterial culture. […] The plates were incubated at an optimal temperature without shaking. […] MBC was determined as the lowest peptide concentration at which no colonies formed. The experiments were conducted in an optimal minimal medium for each pathogen. The media and growth conditions were described in Tables 2 and 3. MIC and MBC values were determined following the procedures described above. […] Fifty microliters of serially diluted peptides (2-fold the final concentration) were added in a 96-well polystyrene plate with 50 μL of the fungal spore suspension.

The subject of assay [17] is Pectobacterium carotovorum subsp. carotovorum. It is filed as cell-based. As to the method:
as §7

Assay [18] has as its system Ralstonia solanacearum strain Pss190. As to conditions: Rs Pss190; optimal minimal medium, crude peptides (Table 9).
In assay [19] the test system is Agrobacterium tumefaciens strain Atu C58C1. The note with it: rich medium, 24 h, purified peptides.
Assay [20] relates to Escherichia coli strain DH5a. As to conditions: 24 h.
For assay [21], the system named is Xanthomonas euvesicatoria strain Xvt28. Briefly: IC50 of bacterial growth (OD600) in rich liquid medium. It is filed as cell-based. The note with it: Xev Xvt28, 24 h, purified peptides. As to the method:
(§8) To measure the antimicrobial activity, single colony grown on an optimal rich agar medium for each bacterium was picked and grew in 3 mL of the same rich liquid medium for 4 to 6 h. The bacterial culture was then diluted in the same medium to give a final concentration of OD600=0.08 and then further diluted […] in the same medium. In each well of a 96-well polystyrene plate, 90 μL of the diluted culture was mixed with 10 μL of the peptide to give a peptide concentration of 0, 2, 10, and 20 μg/mL (final cell concentration is 5×10^5 CFU/mL). OD600 was measured after incubation at an optimal temperature for 24 h. IC50 was determined as the lowest peptide concentration inhibiting 50% of bacterial growth.

Assay [22] deals with Xanthomonas campestris pv. campestris strain Xcc17. Described as above. It is filed as cell-based. As to conditions: Xcc Xcc17, 24 h, purified peptides. As to the method:
as §8

The subject of assay [23] is Xanthomonas oryzae pv. oryzae strain Xoo28. As to conditions: Xoo Xoo28; rich medium, 24 h, purified peptides.
In the next assay the test system is Candida albicans SC5314. As to conditions: Candida albicans SC5314; 48 h at 35° C., 0.125 to 64 μg/mL (Table 5).

As to `CCCCCCCCCCCCCC(=O)N[C@@H](Cc1c[nH]c2ccccc12)C(=O)N[C@@H](CCCCN)C(=O)N[C@@H](CCCCN)C(=O)N[C@H](C(=O)N[C@@H](CCCCN)C(=O)N[C@@H](CCCCN)C(=O)N[C@H](C(=O)N[C@H](C(=O)N[C@@H](CCCCN)C(=O)N[C@@H](CCCCN)C(=O)N[C@H](C(=O)N[C@@H](CCCCN)C(=O)N[C@@H](CCCCN)C(=O)N[C@H](C(N)=O)[C@@H](C)CC)[C@@H](C)CC)[C@@H](C)CC)[C@@H](C)CC)[C@@H](C)CC` [pepI2M] (Myristoyl-WKKIKKIIKKIKKI-NH2), the MBC in assay [1] was 32 µg/mL (≈ 16 µM).

As to `CC(=O)N[C@@H](Cc1c[nH]c2ccccc12)C(=O)N[C@H](CCCCN)C(=O)N[C@H](CCCCN)C(=O)N[C@H](CC(C)C)C(=O)N[C@H](CCCCN)C(=O)N[C@H](CCCCN)C(=O)N[C@H](CC(C)C)C(=O)N[C@H](CC(C)C)C(=O)N[C@H](CCCCN)C(=O)N[C@H](CCCCN)C(=O)N[C@H](CC(C)C)C(N)=O` [pepdD3, Ac-Wkklkkllkkl-NH2] (Ac-W[dK][dK][dL][dK][dK][dL][dL][dK][dK][dL]-NH2), the MFC in [2] (89-610 (fluconazole-resistant)) was found to be 4 µg/mL (≈ 2.73 µM); in assay [3] (H99), 8 µg/mL (≈ 5.45 µM); in assay [4] (T1 (fluconazole-resistant)), 4 µg/mL (≈ 2.73 µM); in assay [5], 4 µg/mL (≈ 2.73 µM). The MIC in assay [2] (Cryptococcus neoformans 89-610 (fluconazole-resistant)) was 4 µg/mL (≈ 2.73 µM); in assay [3] (Cryptococcus neoformans H99) it was 8 µg/mL (≈ 5.45 µM); in assay [4] (Cryptococcus neoformans T1 (fluconazole-resistant)), 4 µg/mL (≈ 2.73 µM); in [5] (Cryptococcus deuterogattii R265), 4 µg/mL (≈ 2.73 µM).

With Ac-WKKLKKLLKKLKKL-NH2 [pepD2], the MBC is 3.5 µg/mL in assay [6]; 1.0 µg/mL in [7]; 8.8 µg/mL in assay [9]; 7.0 µg/mL with Eco DH5α (Table 7); 8.0 µg/mL in the assay on Eco DH5α (Table 13); 16 µg/mL in assay [10]. For the same compound, the MBC came out at 2.2 µg/mL in assay [11]; 16 µg/mL in [12]; 6.0 µg/mL in assay [13]; 14.7 µg/mL in assay [15]; 32 µg/mL in [16]; 32.0 µg/mL against Erwinia chrysanthemi. For the same compound, the MBC is 18.8 µg/mL in assay [17] and 6.7. μg/mL in [17] (Pcc, Table 13). The MIC in assay [6] was 3.0 µg/mL; in [7], 1.0 µg/mL; in assay [8] it was “— (“—” indicates no antimicrobial activity being detected at the highest peptide concentration (32 μg/mL) tested in this study.)”; in assay [9], 4.8 µg/mL; with Eco DH5α (Table 7) it was 4.3 µg/mL; in the assay with Eco DH5α (Table 13) it was 8.0 µg/mL. For the same compound, the MIC entry against Botrytis cinerea was “— (“—” indicates no antimicrobial activity being detected at the highest peptide concentration (32 μg/mL) tested in this study.)”; in assay [10], 16 µg/mL; in assay [11], 1.6 µg/mL; in assay [12] it was 16 µg/mL; in [13], 5.0 µg/mL; against Cgl FST02, “— (“—” indicates no antimicrobial activity being detected at the highest peptide concentration (32 μg/mL) tested in this study.)”. In addition, the values for the MIC in assay [15], in assay [16] and in assay [18] were 6.0 µg/mL, 16 µg/mL and “— (“—” indicates no antimicrobial activity being detected at the highest peptide concentration (32 μg/mL) tested in this study.)”, respectively. In addition, the MBC/MFC entry is “— (“—” indicates no antimicrobial activity being detected at the highest peptide concentration (32 μg/mL) tested in this study.)” in [8]; “— (“—” indicates no antimicrobial activity being detected at the highest peptide concentration (32 μg/mL) tested in this study.)” with Botrytis cinerea; “— (“—” indicates no antimicrobial activity being detected at the highest peptide concentration (32 μg/mL) tested in this study.)” with Cgl FST02; 21.3 µg/mL against Erwinia chrysanthemi; 8.0 µg/mL in assay [17]; “— (“—” indicates no antimicrobial activity being detected at the highest peptide concentration (32 μg/mL) tested in this study.)” in assay [18]. Also, in [14], the “membranolytic effect on the cell walls of bacteria, fungal spores, and fungal mycelia” value is listed as “significant membranolytic effect”.

Take Ac-WKLKLKLKLKLKLKLKLK-NH2 [pepE]: the IC50 in [19] is 20.0 µg/mL; in assay [20] (DH5a), 10.0 µg/mL; in assay [21], 2.0 µg/mL; in [22] it was 4.0 µg/mL; in assay [23], 7.3 µg/mL. Besides, the MIC entry with Candida albicans SC5314 is reported as “— (“—” indicates no antimicrobial activity being detected at the highest peptide concentration (64 μg/mL) tested.)”.

As to Ac-WKLLKKLLKKLKKLLKKL-NH2 [pepC], the IC50 in [19] was 12.5 µg/mL; in [20] (Eco DH5α, rich medium, purified peptides), 10.0 µg/mL; in assay [21] it was 8.0 µg/mL; in assay [22] it was 10.0 µg/mL; in assay [23] it was 12.5 µg/mL. The compound further returned an MIC in the assay with Candida albicans SC5314 of 32.0 µg/mL.

One may read the MBC as the smallest concentration meeting the test's criterion for killing. The low end stands for more potent killing, the high end for less potent killing. A word on the MIC: it is the lowest concentration that inhibits growth of the organism. Higher therefore signals a less susceptible organism. A word on the IC50: it is the midpoint of a concentration-inhibition curve.
